Test results published in patent publication US20160257697A1, “THIOPHENE-SUBSTITUTED TETRACYCLIC COMPOUNDS AND METHODS OFUSE THEREOF FOR THE TREATMENT OF VIRAL DISEASES” (priority 2013, published 2016).
Like-named read-outs stand apart in the source and are kept apart here.

Key:
Test in all cases: microbe, parasite or virus in culture
Assay type in all cases: cell-based, Hepatitis C virus (HCV)
HCV replicon 1AY93H = details: Replicon Assay A
Method in brief: (§1)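 HCV replicon RNA levels were quantified by TaqMan RT-PCR after 3-day compound exposure (0.5% DMSO, 5% FBS). Cyclophilin RNA, co-amplified in the same reaction, served as endogenous control; Ct values were converted to RNA amounts using linear regression standard curves.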

HCV replicon 1A = details: Replicon Assay A
Method in brief: as §1

HCV replicon 2B = details: Replicon Assay A
Method in brief: as §1

HCV replicon 1AQ30D = details: Replicon Assay B
HCV replicon 1B = details: Replicon Assay B
[1] = read-out: 1A Y93H IC50, HCV replicon 1A Y93H
[2] = read-out: 2B IC50, HCV replicon 2B
[3] = read-out: 1A Q30D IC50, HCV replicon 1A Q30D
[4] = replicon 1AY93H, read-out: 1A Y93H IC50
[5] = replicon 1AQ30D, read-out: 1A Q30D IC50
[6] = Hepatitis C virus, HCV replicon 1B
[7] = Hepatitis C virus, read-out: 1A Y93H IC50 (nM), replicon 1AY93H
[8] = Hepatitis C virus, read-out: 2B IC50 (nM), replicon 2B
[9] = Hepatitis C virus, read-out: 1A Q30D IC50 (nM), replicon 1AQ30D
[10] = read-out: 1A Y93H IC50, replicon 1AY93H
[11] = read-out: 1A Q30D IC50, replicon 1AQ30D

CCc1ccc(C2Oc3cc(-c4cnc([C@@H]5CCCN5C(=O)[C@@H](NC(=O)OC)C(C)C)[nH]4)ccc3-c3c(F)c4cc(-c5cnc([C@@H]6CCCN6C(=O)C(NC(=O)OC)C6C[C@@H](C)O[C@@H](C)C6)[nH]5)ccc4n32)s1 (single isomer, unassigned) [Compound 635]
IC50 (HCV replicon 1AY93H; [1]): 0.0272 nM
IC50 (HCV replicon 1A; HCV replicon 1A): 2.4 pM
IC50 (HCV replicon 2B; [2]): 0.0225 nM
IC50 (HCV replicon 1AQ30D; [3]): 0.744 nM
IC50 (HCV replicon 1B; HCV replicon 1B): 2.4 pM

COC(=O)N[C@H](C(=O)N1CCC[C@H]1c1ncc(-c2cc(F)c3c(c2)OC(c2cc4c(s2)CCC4)n2c-3cc3cc(-c4cnc([C@@H]5C[C@H]6C[C@H]6N5C(=O)[C@@H](NC(=O)OC)C5C[C@@H](C)O[C@@H](C)C5)[nH]4)ccc32)[nH]1)C(C)C (single isomer, unassigned) [Compound 553]
IC50 (HCV replicon 1AY93H; [1]): 0.0396 nM
IC50 (HCV replicon 1A; HCV replicon 1A): 44.1 pM
IC50 (HCV replicon 2B; [2]): 0.218 nM
IC50 (HCV replicon 1AQ30D; [3]): 0.708 nM
IC50 (HCV replicon 1B; HCV replicon 1B): 48.2 pM

COCCc1ccc(C2Oc3cc(-c4cnc([C@@H]5CCCN5C(=O)[C@@H](NC(=O)OC)C(C)C)[nH]4)cc(F)c3-c3cc4cc(-c5cnc([C@@H]6CCCN6C(=O)[C@@H](NC(=O)OC)C(C)C)[nH]5)ccc4n32)s1 (single isomer, unassigned) [Compound 82]
IC50 (HCV replicon 1AY93H; [4]): 0.014 nM
IC50 (HCV replicon 1A; replicon 1A): 1.1 pM
IC50 (HCV replicon 2B; replicon 2B, read-out: 2B IC50): 0.15 nM
IC50 (HCV replicon 1AQ30D; [5]): 0.26 nM
IC50 (HCV replicon 1B; replicon 1B): 1.3 pM

COC(=O)NC(C(=O)N1CCC[C@H]1c1ncc(-c2ccc3c(c2)cc2n3C(c3ccc(CC(F)(F)F)s3)Oc3cc(-c4cnc([C@@H]5CCCN5C(=O)[C@@H](NC(=O)OC)C(C)C)[nH]4)cc(F)c3-2)[nH]1)C1C[C@@H](C)O[C@@H](C)C1 (single isomer, unassigned) [Compound 382]
IC50 (HCV replicon 1AY93H; [4]): 0.0034 nM
IC50 (HCV replicon 1A; replicon 1A): 1.7 pM
IC50 (HCV replicon 2B; replicon 2B, read-out: 2B IC50): 0.008 nM
IC50 (HCV replicon 1AQ30D; [5]): 0.0229 nM
IC50 (HCV replicon 1B; replicon 1B): 2.5 pM

CCc1ccc(C2Oc3cc(-c4cnc([C@@H]5CCCN5C(=O)[C@@H](NC(=O)OC)C(C)C)[nH]4)ccc3-c3c(F)c4cc(-c5cnc([C@@H]6CCCN6C(=O)C(NC(=O)OC)C6C[C@@H](C)O[C@@H](C)C6)[nH]5)ccc4n32)s1 (single isomer, unassigned) [Compound 634]
IC50 (HCV replicon 1AY93H; [1]): 0.0149 nM
IC50 (HCV replicon 1A; HCV replicon 1A): 2.3 pM
IC50 (HCV replicon 2B; [2]): 0.027 nM
IC50 (HCV replicon 1AQ30D; [3]): 0.237 nM
IC50 (HCV replicon 1B; [6]): 1.5 pM

COC(=O)N[C@H](C(=O)N1CCC[C@H]1c1ncc(-c2cc(F)c3c(c2)OC(c2ccc(C4CC4)s2)n2c-3cc3cc(-c4cnc([C@@H]5CCCN5C(=O)[C@@H](NC(=O)OC)C5CCOCC5)[nH]4)ccc32)[nH]1)C(C)C (stereo partly shown) [Compound 127]
IC50 (HCV replicon 1AY93H; [7]): 0.002 nM
IC50 (HCV replicon 1A; Hepatitis C virus, replicon 1A): 2 pM
IC50 (HCV replicon 2B; [8]): 0.003 nM
IC50 (HCV replicon 1AQ30D; [9]): 0.02 nM
IC50 (HCV replicon 1B; Hepatitis C virus, replicon 1B): 2.8 pM

COC(=O)N[C@H](C(=O)N1CCC[C@H]1c1ncc(-c2cc(F)c3c(c2)OC(c2ccc(C4(C)CC4)s2)n2c-3cc3cc(-c4cnc([C@@H]5CCCN5C(=O)[C@@H](NC(=O)OC)C(C)C)[nH]4)ccc32)[nH]1)C(C)C (single isomer, unassigned) [Compound 836]
IC50 (HCV replicon 1AY93H; HCV replicon 1A Y93H, read-out: 1A Y93H IC50): 0.016 nM
IC50 (HCV replicon 1A; HCV replicon 1A): 2.1 pM
IC50 (HCV replicon 2B; HCV replicon 2B, read-out: 2B IC50): 0.06 nM
IC50 (HCV replicon 1AQ30D; HCV replicon 1A Q30D, read-out: 1A Q30D IC50): 0.297 nM
IC50 (HCV replicon 1B; HCV replicon 1B): 1.8 pM

CCc1ccc(C2Oc3cc(-c4cnc([C@@H]5CCCN5C(=O)[C@@H](NC(=O)OC)C(C)C)[nH]4)cc(C)c3-c3cc4cc(-c5cnc([C@@H]6CCCN6C(=O)[C@@H](NC(=O)OC)C6CCOC(C)(C)C6)[nH]5)ccc4n32)s1 (single isomer, unassigned) [Compound 547]
IC50 (HCV replicon 1AY93H; Hepatitis C virus, read-out: 1A Y93H IC50, HCV replicon 1A Y93H): 0.13 nM
IC50 (HCV replicon 1A; Hepatitis C virus, HCV replicon 1A): 7 pM
IC50 (HCV replicon 2B; Hepatitis C virus, read-out: 2B IC50, HCV replicon 2B): 0.012 nM
IC50 (HCV replicon 1AQ30D; Hepatitis C virus, read-out: 1A Q30D IC50, HCV replicon 1A Q30D): 0.96 nM
IC50 (HCV replicon 1B; [6]): 7 pM

COC(=O)NC(C(=O)N1CCC[C@H]1c1ncc(-c2cc(F)c3c(c2)OC(c2ccc(C4CC4)s2)n2c-3cc3cc(-c4cnc([C@@H]5CCCN5C(=O)[C@@H](NC(=O)OC)C(C)C)[nH]4)ccc32)[nH]1)C1CCOC(C)(C)C1 (single isomer, unassigned) [Compound 214]
IC50 (HCV replicon 1AY93H; [10]): 0.009 nM
IC50 (HCV replicon 1A; replicon 1A): 3 pM
IC50 (HCV replicon 2B; read-out: 2B IC50, replicon 2B): 0.005 nM
IC50 (HCV replicon 1AQ30D; [11]): 0.032 nM
IC50 (HCV replicon 1B; Hepatitis C virus, replicon 1B): 2.2 pM

CCc1ccc(C2Oc3cc(-c4cnc([C@@H]5CCCN5C(=O)C(NC(=O)OC)C5CCOC(C)(C)C5)[nH]4)cc(F)c3-c3cc4cc(-c5cnc([C@@H]6CCCN6C(=O)[C@@H](NC(=O)OC)C(C)C)[nH]5)ccc4n32)s1 (single isomer, unassigned) [Compound 162]
IC50 (HCV replicon 1AY93H; [10]): 0.004 nM
IC50 (HCV replicon 1A; replicon 1A): 2.2 pM
IC50 (HCV replicon 2B; read-out: 2B IC50, replicon 2B): 0.006 nM
IC50 (HCV replicon 1AQ30D; [11]): 0.027 nM
IC50 (HCV replicon 1B; replicon 1B): 1.9 pM

COC(=O)NC(C(=O)N1[C@@H]2C[C@@H]2C[C@H]1c1ncc(-c2ccc3c(c2)cc2n3C(c3ccc(CC4CC4)s3)Oc3cc(-c4cnc([C@@H]5CCCN5C(=O)[C@@H](NC(=O)OC)C(C)C)[nH]4)cc(F)c3-2)[nH]1)C1CCOC(C)(C)C1 (single isomer, unassigned) [Compound 416]
IC50 (HCV replicon 1AY93H; [1]): 0.0862 nM
IC50 (HCV replicon 1A; HCV replicon 1A): 2.3 pM
IC50 (HCV replicon 2B; [2]): 0.104 nM
IC50 (HCV replicon 1AQ30D; [3]): 1.24 nM
IC50 (HCV replicon 1B; HCV replicon 1B): 3.1 pM

COC(=O)N[C@@H](Cc1ccccc1)C(=O)N1CCC[C@H]1c1ncc(-c2ccc3c(c2)OC(c2ccc(-c4ccc(NC(=O)CCCC[C@@H]5SC[C@@H]6NC(=O)N[C@@H]65)cc4)s2)n2c-3cc3cc(-c4cnc([C@@H]5CCCN5C(=O)[C@H](Cc5ccccc5)NC(=O)OC)[nH]4)ccc32)[nH]1 (single isomer, unassigned) [Compound 384]
IC50 (HCV replicon 1AY93H; [10]): 0.923 nM
IC50 (HCV replicon 1A; replicon 1A): 15.6 pM
IC50 (HCV replicon 2B; read-out: 2B IC50, replicon 2B): 3.75 nM
IC50 (HCV replicon 1AQ30D; [9]): 16.7 nM
IC50 (HCV replicon 1B; Hepatitis C virus, replicon 1B): 9.5 pM

COC(=O)NC(C(=O)N1CCC[C@H]1c1ncc(-c2ccc3c(c2)cc2n3C(c3cc4nccnc4s3)Oc3cc(-c4cnc([C@@H]5CCCN5C(=O)[C@@H](NC(=O)OC)C(C)C)[nH]4)cc(F)c3-2)[nH]1)C1C[C@@H](C)O[C@@H](C)C1 (single isomer, unassigned) [Compound 372]
IC50 (HCV replicon 1AY93H; [10]): 0.0051 nM
IC50 (HCV replicon 1A; replicon 1A): 2.2 pM
IC50 (HCV replicon 2B; read-out: 2B IC50, replicon 2B): 0.0064 nM
IC50 (HCV replicon 1AQ30D; [9]): 0.0964 nM
IC50 (HCV replicon 1B; Hepatitis C virus, replicon 1B): 3.2 pM

COC(=O)NC(C(=O)N1CCC[C@H]1c1ncc(-c2ccc3c(c2)cc2n3C(c3ccc(C4CCCC4)s3)Oc3cc(-c4cnc([C@@H]5CCCN5C(=O)[C@@H](NC(=O)OC)C(C)C)[nH]4)cc(F)c3-2)[nH]1)C1C[C@@H](C)O[C@@H](C)C1 (single isomer, unassigned) [Compound 657]
IC50 (HCV replicon 1AY93H; [1]): 0.105 nM
IC50 (HCV replicon 1A; HCV replicon 1A): 2.5 pM
IC50 (HCV replicon 2B; [2]): 0.0941 nM
IC50 (HCV replicon 1AQ30D; [3]): 1.14 nM
IC50 (HCV replicon 1B; HCV replicon 1B): 3.7 pM

COC(=O)NC(C(=O)N1CCC[C@H]1c1ncc(-c2ccc3c(c2)cc2n3C(c3ccc(C4CC4)s3)Oc3cc(-c4cnc([C@@H]5CCCN5C(=O)[C@@H](NC(=O)OC)C(C)C)[nH]4)cc(F)c3-2)[nH]1)C1C[C@@H](C)O[C@@H](C)C1 (stereo partly shown) [Compound 208]
IC50 (HCV replicon 1AY93H; [7]): 0.008 nM
IC50 (HCV replicon 1A; Hepatitis C virus, replicon 1A): 3.1 pM
IC50 (HCV replicon 2B; [8]): 0.005 nM
IC50 (HCV replicon 1AQ30D; [9]): 0.043 nM
IC50 (HCV replicon 1B; Hepatitis C virus, replicon 1B): 3.2 pM

COC(=O)N[C@H](C(=O)N1CCC[C@H]1c1ncc(-c2cc(F)c3c(c2)OC(c2ccc(C4CC4)s2)n2c-3cc3cc(-c4cnc([C@@H]5CCCN5C(=O)[C@@H](NC(=O)OC)C5C[C@@H](C)O[C@@H](C)C5)[nH]4)ccc32)[nH]1)C1C[C@@H](C)O[C@@H](C)C1 (stereo partly shown) [Compound 303]
IC50 (HCV replicon 1AY93H; [7]): 0.002 nM
IC50 (HCV replicon 1A; Hepatitis C virus, replicon 1A): 2.6 pM
IC50 (HCV replicon 2B; [8]): 0.003 nM
IC50 (HCV replicon 1AQ30D; [9]): 0.008 nM
IC50 (HCV replicon 1B; Hepatitis C virus, replicon 1B): 1.3 pM

COC(=O)N[C@H](C(=O)N1CCC[C@@H]1c1ncc(-c2ccc3c(c2)cc2n3C(c3ccc(C4CC4)s3)Oc3cc(-c4cnc([C@@H]5CCCN5C(=O)[C@H](NC(=O)OC)C(C)(C)F)[nH]4)cc(F)c3-2)[nH]1)C1C[C@@H](C)O[C@@H](C)C1 (stereo partly shown) [Compound 380]
IC50 (HCV replicon 1AY93H; [7]): 0.0052 nM
IC50 (HCV replicon 1A; Hepatitis C virus, replicon 1A): 3 pM
IC50 (HCV replicon 2B; [8]): 0.0056 nM
IC50 (HCV replicon 1AQ30D; [9]): 0.022 nM
IC50 (HCV replicon 1B; Hepatitis C virus, replicon 1B): 2.4 pM
